Patent US6815170B1, “Methods for lymph node identification” (John Wayne Cancer Institute, priority 1999, dated 2004)
Entries after “also recorded” stand apart in the source; their conditions may differ.

Experiments:
[1] = test system: sentinel lymph node; experiment: Intraoperative lymphatic mapping / sentinel lymph node dissection with histologic evaluation for carbon particles; format: in vivo, Sprague-Dawley rats; details: for basins in which afferent lymphatic channel and stained (sentinel) node were identified: 0.04 cc intradermal, lower extremity, incision 5 min after injection
Source text: Twenty-two adult Sprague-Dawley rats weighing 300-500 g were obtained after receiving approval from the Animal Care and Use Committee at the Harbor-UCLA Research and Education Institute. All animals were obtained at least one day prior to planned procedures.
Isosulfan blue dye (Lymphazurin 1%) was obtained from Hirsch Industries, Inc. (Richmond, Va.). Carbon dye containing 6% carbon black (# 4415) was obtained from Sanford Corporation (Bellwood, Ill.) and either used alone at full strength or mixed with isosulfan blue and/or sterile normal saline in the concentrations shown in Table 1.
All mapping solutions containing ink were sterilized in an autoclave at 121° C. for 25 m, prior to injection.
All procedures were performed under general anesthesia. Rats were anesthetized with a mixture of ketamine (42.9 mg/kg), xylazine (8.6 mg/kg), and acepromazine (1.4 mg/kg). A half-dose of this mixture was readministered at 60 minutes and then every 30 minutes. Buprenorphine (0.01-0.05 mg/kg) was administered subcutaneously for postoperative analgesia.
The inguinal regions of the animals were shaved. A 29-gauge needle with a 1-cc tuberculin syringe was used to inject 0.04 cc of the mapping solution intradermally just below the medial aspect of the knee on the lower extremity. Five minutes later, and under sterile conditions, an incision was made over the region of the inguinal lymph nodes. […] The lymphatic was followed to the first stained lymph node. Further dissection was carried out to identify additional stained nodes. All stained nodes were removed and placed in formalin. Nonstained nodes in the same drainage basin were removed and fixed in a similar fashion, and analyzed for carbon particles. The identical procedure was performed on the contralateral extremity of each animal using an alternative mapping mixture.
Lymph nodes were placed in paraffin blocks, serially sectioned, and stained with hematoxylin and eosin (H and E). Each lymph node was evaluated by light microscopy for the presence of carbon particles.

[2] = test system: malignant melanoma; details: liver and lung; cited from earlier work

SMILES | basins in which afferent lymphatic channel and stained (sentinel) node were identified ([1]; listed as Isosulfan blue) | basins in which afferent lymphatic channel and stained (sentinel) node were identified ([1]; listed as Isosulfan blue dye) | total number of sentinel nodes ([1]; 6 basins) | uptake by non-tumor tissue [2]
CCN(CC)c1ccc(C(=C2C=CC(=[N+](CC)CC)C=C2)c2cc(S(=O)(=O)[O-])ccc2S(=O)(=O)[O-])cc1.[Na+] [isosulfan blue dye, isosulfan blue] | effectively identified the lymphatic channel and sentinel node(s); also recorded: clearly identified one sentinel node in each paired basin | all 6 | 8 | 
CCN(CC)CCNC(=O)c1ccc(I)cc1 [IDAB, N-(diethylaminoethyl)4-iodobenzamide] |  |  |  | taken up in high concentrations by non-melanoma cells in the liver and lung
